Laboratory results from patent EP0454429B1, “Use of 15-dehydroxy-16-oxoprostaglandin derivatives in the treatment of allergic diseases” (R-TECH UENO, LTD., priority 1990, dated 1991).

Tests used:
conjunctive = assay: Histamine-induced conjunctival inflammation and dye leakage, ophthalmic administration (Test Example 6); format: in vivo, Female Wistar rats; parameters: Weight of Conjunctive (Mean±S.D.): dose or concentration left out as unconfirmed; conditions: for Weight of Conjunctive (Mean±S.D.): 3 minutes before Evans Blue and subconjunctival histamine, 30 minutes, control 41.5±2.0; for Dye (µg/part): dye extracted from conjunctive, absorption at 625 nm, control 8.26±0.52
Procedure: Female Wistar rats (weight: 90g) were used as the test animals. The animals received the test compounds and, 3 minutes after, 0.5ml of 0.5% Ebans Blue/physiological saline was administered through the caudal vein. Then, immediately after, 0.05ml of 0.1% histamine hydrochloride/physiological saline was injected subconjunctivally at an upper eyelid. After 30 minutes, the animals were sacrificed by vertebral cervial dislocation and the scalp was peeled away towards the eyelid. Part of skin and conjunctive showing inflammation was cut off and weighed. Then, said conjunctive was minced and extracted overnight with 4ml […] at 40°C with shaking. The dye in the conjunctive was assayed by measuring absorption of the extract at 625 nm. […] Control animals received the same amount of the physiological saline.

[1] = system: increase in the airway resistance by histamine; assay: Inhibition of histamine-induced increase in airway resistance, test compound i.v. (Test Example 2); format: in vivo; conditions: one minute before histamine (3 µg/kg), anesthetized guinea pig
Procedure: A guinea pig was intraperitoneally anesthetized with 1.0-1.2 g/kg urethane (Katayama Kagaku, Japan). The test animal was cannulated through the common carotid […] and the trachea, and then pancuronium bromide was intravenously administered at 0.3 mg/kg to stop the spontaneous respiration of the test animal. The animal was artificially respired using a respirater for a small animal (SN-480-7, Shinano Seisakusho, Japan) and bronchospasm transducer (7020, Ugo Basile). The overflowing air at 6-9 ml(air)/time, 60 times/minute and loading pressure of 10 cm H2O was recorded on a recorder (056-1001, Hitachi Seisakusho, Japan) through the bronchospasm transducer. Histamine (3 µg/kg) was administered several times at 30 minutes intervals, and when the increase in the airway resistance by histamine was established, the test compounds were intravenously administered one minute before the administration of histamine (3 µg/kg) to induce airway constriction. The difference of airway resistance before and after the administration of histamine was taken as 100% and activity of test compounds was shown in terms of percent inhibition of the increase due to histamine.

[2] = system: contraction by leukotriene D4; assay: Inhibition of leukotriene D4-induced contraction of isolated guinea pig trachea (Test Example 3); format: cell-based; conditions: guinea pig trachea contracted with 1x10^-8M leukotriene D4; for IC20: concentration for 20% inhibition; for IC50: concentration for 50% inhibition
Procedure: (§1) A guinea pig was sacrificed by knocking at the occipital region and then bleeding from the femoral artery. The trachea was removed, incised in the longitudinal direction at the opposite side of the smooth muscle and sectioned into sections of about 1 to 1.5 cm along the cartilage. Seven or eight sections were linked by a silk thread in chains. The sample was stretched by 1.0 g of tension in 15 ml of Tyrode's solution at 37°C under flow of the mixed gas of 95% O2 and 5% CO2. After resting for 60 to 90 minutes for stabilization, the sample was contracted with 1x10^-8M leukotriene D4 and when the construction reached the constant value, the test compounds were accumulately added every 6 minutes, and the change in tension was recorded on a recorder (T-626DS, Nippon Densi Kagaku, Japan) through an isometric transducer (1T-1, LABOX, Fukukensha, Japan).
Rate of inhibition by the test compounds of the contraction by leukotriene D4 was expressed in percent, and IC20 and IC50 values were calculated as the concentration of the test compounds for 20% and 50% […], respectively.

PCA reaction = assay: Passive cutaneous anaphylaxis (PCA) reaction in sensitized rats (Test Example 7); format: in vivo, Male Crj Wistar rats; conditions: Dose 10 µg/kg intravenously, n=16
Procedure: Male Crj Wistar rats (7 weeks old) were passively sensitized by injecting 50µl of diluted rat anti-EA (egg albumin) antiserum at the dorsal skin.
After 48 hours, 1 ml of a mixture consisting of equal amount of 1% EA (egg albumin) as the antigen in physiological saline and 1% Evans Blue in physiological saline was injected in the caudal vein to elicit the PCA reaction. After 30 minutes, the animals were killed by deep anesthetization and dorsal skin was ablated. The major and minor axes of reacted part, i.e. pigment-leaking site were measured and the average value of them was taken as the diameter, from which the area was calculated.
Then said site was punched and amount of the pigment was measured by the following method.
The punched site was dipped in 1ml of 1N aqueous potassium hydroxide and allowed to stand overnight at 37°C. Then 9ml of a mixed solution of 0.6N H3PO4: acetone (5:13) was added and the mixture was centrifuged. The supernatant was assayed for absorption at 620 nm using an absorption spectrophotometer. The amount of the pigment was determined by calibration curve which was obtained using the known amounts of the pigment.
The test compound was dissolved in the physiological saline and intravenously administered. The control animals intravenously received the physiological saline (5ml/kg) alone.

contraction by histamine = assay: Inhibition of histamine-induced contraction of isolated guinea pig trachea (Test Example 1); format: cell-based; conditions: guinea pig trachea contracted with 5.4x10^-4M histamine, cumulative addition every 6 minutes; for IC20: concentration for 20% inhibition; for IC50: concentration for 50% inhibition
Procedure: as §1, with “5.4x10^-4M histamine” for “1x10^-8M leukotriene D4”, “Denshi” for “Densi”
Rate of inhibition by the test compounds of the contraction by histamine was expressed in percent, and IC20 and IC50 values were calculated as the concentration of the test compounds for 20% and 50% […], respectively.

[3] = system: platelet activating factor (PAF); assay: Inhibition of PAF-induced increase in airway resistance, test compound i.v. (Test Example 4); format: in vivo, guinea pig; conditions: dose 10µg/kg i.v. one minute before PAF (50 ng/kg i.v.), n=2
Procedure: A guinea pig was intraperitoneally anesthetized with 1.2 g/kg urethane (Katayama Kagaku, Japan). The test animal was cannulated through the common carotid […] and the trachea, and then pancuronium bromide was intravenously administered at 0.3 mg/kg to stop the spontaneous respiration of the test animal. The animal was artificially respired using a respirater for a small animal (SN-480-7, Shinano Seisakusho, Japan) and bronchospasm transducer (7020, Ugo Basile). The overflowing air at 7-10 ml(air)/time, 60 times/minute and loading pressure of 10 cm H2O was recorded on a recorder (056-1001, Hitachi Seisakusho, Japan) through the bronchospasm transducer. When the base line was stabilized, platelet activating factor (PAF) (50 ng/kg) was intravenously administered. The increase in the airway resistance was determined taking the value at the complete occlusion of trachea as the maximum contraction (100%). The test compounds were intravenously administered one minute before the administration of PAF. The difference of airway resistance before and after the administration of 50 ng/kg PAF was taken as 100% and activity of test compound was shown in terms of percent inhibition of the increase due to PAF.

Row | IC50 ([2]; Cavia porcellus) | IC50 (contraction by histamine; Cavia porcellus, 0.1 h) | SMILES | Weight of Conjunctive (Mean±S.D.) (conjunctive) | Dye (µg/part) (conjunctive) | IC20 ([2]; Cavia porcellus) | IC20 (contraction by histamine; Cavia porcellus, 0.1 h) | also measured
1 |  |  | CCCC(F)(F)C(=O)CCC[C@H]1C(=O)C[C@H](O)[C@@H]1C/C=C\CCCC(=O)OC [compound 8] | 38.5 ± 2.0 mg | 7.69±0.71 µg/part |  |  | 
2 |  |  | CCCC(F)(F)C(=O)CCCC1C(=O)CC(O)C1C/C=C\CCCC(=O)OC (stereo not drawn) [Test Compound 8, 13,14-dihydro-15-dehydroxy-16-oxo-17,17-difluoro-PGD2 methyl ester] | 32.7 ± 1.8 mg |  |  |  | Inhibition (%) ([1]; dose 5 µg/kg): 93%; IC20 [2]: 40 nM; IC50 [2]: 120 nM; Amount(µg/site) (PCA reaction; amount of pigment in punched site, absorption at 620 nm, control 104.9±45.4): 38.0±15.9 µg/site; Area(mm^2) (PCA reaction; area of pigment-leaking site, 30 minutes after antigen, control 56.9±19.4): 33.7±7.5 mm^2; IC20 (contraction by histamine): 100 nM; IC50 (contraction by histamine): 350 nM; Increase in Resistance (%,mean) ([3]; complete occlusion of trachea = 100%, control 74.5): 11.5%; Inhibition (%) [3]: 84.6%
3 | 25000 nM |  | CCCC(F)(F)C(=O)CCC[C@H]1[C@H](C)CC(=O)[C@@H]1C/C=C\CCCC(=O)OC [compound 4] |  |  | 7000 nM | 10000 nM | 
4 | 600 nM | 2000 nM | CCCC(F)(F)C(=O)CCC[C@H]1[C@H](O)CC(=O)[C@@H]1C/C=C\CCCC(=O)OC(C)C [compound 3] |  |  | 180 nM | 500 nM | 
5 | 20000 nM |  | CCCC(F)(F)C(=O)CCC[C@@H]1[C@@H](C/C=C\CCCC(=O)OC)[C@@H](O)C[C@H]1O [compound 7] |  |  | 4000 nM | 17000 nM | 
6 |  |  | CCCC(F)(F)C(=O)CCC[C@H]1C=CC(=O)[C@@H]1C/C=C\CCCC(=O)OC [compound 9] | 38.9 ± 1.8 mg | 7.49±0.67 µg/part |  |  | 
7 | 1000 nM | 2000 nM | CCCC(F)(F)C(=O)CCC[C@H]1[C@H](O)CC(=O)[C@@H]1C/C=C\CCCC(=O)O [compound 2] |  |  | 300 nM | 300 nM | Inhibition (%) ([1]; dose 10 µg/kg): 78%
8 | 500 nM | 1200 nM | CCCC(F)(F)C(=O)CCC[C@H]1[C@H](O)CC(=O)[C@@H]1C/C=C\CCCC(=O)OC [compound 1] | 36.3 ± 2.1 mg | 7.13±0.65 µg/part | 160 nM | 300 nM | Inhibition (%) ([1]; dose 10 µg/kg): 92%
